Results on 1 compound are retold here after patent US20090093476A1, “PYRROLO[1,2-A]QUINOXALINE DERIVATIVES AS ADENOSINE A3 RECEPTOR MODULATORS AND USES THEREOF” (FAUST PHARMACEUTICALS, priority 2005, published 2009).

What all share (format): cell-based
One assay has as its system A2780. The assay can be described thus: Cytotoxic activity, MTS assay, A2780. To be noted: Homo sapiens, A2780, 96 hours. The procedure: (§1) This study aims to determine the cytotoxic activity of a compound of the invention against a panel of ten human cancer cell lines.
(§2) Paclitaxel (Taxol®, ref. T1912, Sigma) is used as positive control.
(§3) Human tumor cells were plated at 5,000 to 10,000 cells per well, with 24 h incubation time before treatment. Tumor cell lines were incubated for 96 hours with 10 concentrations, in ¼ dilution steps, of compound of the invention (from 3.8×10^−10 to 1.0×10^−4 M) and Paclitaxel (from 3.8×10^−13 to 1.0×10^−7 M). Experiments were repeated three times, each concentration being issued from quadruplicate. Control cells were treated with corresponding vehicle alone. At the end of the treatments, the cytotoxic activity was evaluated by a MTS assay (Baltrop J A et al, Bioorg. Med. Chem. Lett. 1991, 611-4).
For orientation: Formazan colour is commonly taken as a measure of viable cells.

Another assay relates to A375. In words: Cytotoxic activity, MTS assay, A375. To be noted: Homo sapiens, A-375, A375, 96 hours. The method, then: as §1, §2, §3
A further assay relates to HCT 116. The assay can be described thus: Cytotoxic activity, MTS assay, HCT 116. Particulars: Homo sapiens, HCT 116, 96 hours. The method, then:
as §1, §2, §3

A further assay has as its system HL-60. The assay can be described thus: Cytotoxic activity, MTS assay, HL-60. Particulars: Homo sapiens, HL-60, 96 hours. The method, then: as §1, §2, §3
For a further assay, the system named is HT-29. In words: Cytotoxic activity, MTS assay, HT-29. Particulars: Homo sapiens, HT-29, 96 hours. The procedure:
as §1, §2, §3

For a further assay, the system named is K-562. In words: Cytotoxic activity, MTS assay, K-562. To be noted: Homo sapiens, K562, K-562, 96 hours. The procedure:
as §1, §2, §3

A further assay has as its system PANC-1. The assay can be described thus: Cytotoxic activity, MTS assay, PANC-1. Particulars: Homo sapiens, PANC-1, 96 hours. The procedure:
as §1, §2, §3

Another assay deals with PC-3. The assay can be described thus: Cytotoxic activity, MTS assay, PC-3. Particulars: Homo sapiens, PC-3, 96 hours. The procedure: as §1, §2, §3
The next assay relates to U-87 MG. In words: Cytotoxic activity, MTS assay, U-87 MG. Particulars: Homo sapiens, 96 hours. The method, then: as §1, §2, §3
The subject of a further assay is U-937. The assay can be described thus: Cytotoxic activity, MTS assay, U-937. To be noted: Homo sapiens, U-937, 96 hours. The procedure: as §1, §2, §3

For orientation: IC50 means the concentration needed to halve the response being measured. A higher IC50 goes with weaker potency. Regarding `CC(=O)O[C@H]1C(=O)[C@@]2(C)[C@H]([C@H](OC(=O)c3ccccc3)[C@]3(O)C[C@H](OC(=O)[C@H](O)[C@@H](NC(=O)c4ccccc4)c4ccccc4)C(C)=C1C3(C)C)[C@]1(OC(C)=O)CO[C@@H]1C[C@@H]2O` [Paclitaxel], the IC50 in the assay on A2780 came to 77 nM; with A375 it was 6.52 nM; with HCT 116, 5.57 nM; in the assay with HL-60, 6.65 nM; with HT-29, 8.29 nM; in the assay with K-562, 7.6 nM. For the same compound, the IC50 is greater than 100 nM with PANC-1, 8.8 nM in the assay on PC-3, greater than 100 nM in the assay with U-87 MG and 5.29 nM with U-937.
